{"source": "PubChem BioAssay (NCI)", "test_in_all_cases": "DTP human tumour cell line panel, 48 h", "key": {"BT-549 breast": {"test_system": "BT-549 breast"}, "MALME-3M melanoma": {"test_system": "MALME-3M melanoma"}, "RPMI-8226 leukemia": {"test_system": "RPMI-8226 leukemia"}, "MCF7 breast": {"test_system": "MCF7 breast"}, "MOLT-4 leukemia": {"test_system": "MOLT-4 leukemia"}, "MDA-N": {"test_system": "MDA-N"}, "RXF 393 renal": {"test_system": "RXF 393 renal"}, "NCI-H226 lung": {"test_system": "NCI-H226 lung"}, "NCI-H23 lung": {"test_system": "NCI-H23 lung"}, "TK-10 renal": {"test_system": "TK-10 renal"}, "NCI/ADR-RES ovarian": {"test_system": "NCI/ADR-RES ovarian"}, "UACC-62 melanoma": {"test_system": "UACC-62 melanoma"}, "IGROV1 ovarian": {"test_system": "IGROV1 ovarian"}, "UO-31 renal": {"test_system": "UO-31 renal"}, "SR leukemia": {"test_system": "SR leukemia"}, "DU-145 prostate": {"test_system": "DU-145 prostate"}, "T-47D breast": {"test_system": "T-47D breast"}, "SF-295 CNS": {"test_system": "SF-295 CNS"}, "SNB-19 CNS": {"test_system": "SNB-19 CNS"}, "SW-620 colon": {"test_system": "SW-620 colon"}, "PC-3 prostate": {"test_system": "PC-3 prostate"}, "HCT-116 colon": {"test_system": "HCT-116 colon"}, "OVCAR-8 ovarian": {"test_system": "OVCAR-8 ovarian"}, "A498 renal": {"test_system": "A498 renal"}, "CAKI-1 renal": {"test_system": "CAKI-1 renal"}, "A549 NSCLC": {"test_system": "A549 NSCLC"}, "SK-MEL-28 melanoma": {"test_system": "SK-MEL-28 melanoma"}, "NCI-H522 lung": {"test_system": "NCI-H522 lung"}, "COLO 205 colon": {"test_system": "COLO 205 colon"}, "OVCAR-3 ovarian": {"test_system": "OVCAR-3 ovarian"}, "HOP-62 NSCLC": {"test_system": "HOP-62 NSCLC"}, "UACC-257 melanoma": {"test_system": "UACC-257 melanoma"}, "SF-268 CNS": {"test_system": "SF-268 CNS"}, "HL-60(TB) leukemia": {"test_system": "HL-60(TB) leukemia"}, "EKVX NSCLC": {"test_system": "EKVX NSCLC"}, "CCRF-CEM leukemia": {"test_system": "CCRF-CEM leukemia"}, "SN12C renal": {"test_system": "SN12C renal"}, "HT29 colon": {"test_system": "HT29 colon"}, "HS 578T breast": {"test_system": "HS 578T breast"}, "HOP-92 NSCLC": {"test_system": "HOP-92 NSCLC"}, "SNB-75 CNS": {"test_system": "SNB-75 CNS"}, "M14 melanoma": {"test_system": "M14 melanoma"}, "U251 CNS": {"test_system": "U251 CNS"}, "OVCAR-5 ovarian": {"test_system": "OVCAR-5 ovarian"}, "SK-OV-3 ovarian": {"test_system": "SK-OV-3 ovarian"}, "SK-MEL-5 melanoma": {"test_system": "SK-MEL-5 melanoma"}, "ACHN renal": {"test_system": "ACHN renal"}, "HCT-15 colon": {"test_system": "HCT-15 colon"}, "HCC-2998 colon": {"test_system": "HCC-2998 colon"}, "MDA-MB-231 breast": {"test_system": "MDA-MB-231 breast"}, "KM12 colon": {"test_system": "KM12 colon"}, "LOX IMVI melanoma": {"test_system": "LOX IMVI melanoma"}, "SK-MEL-2 melanoma": {"test_system": "SK-MEL-2 melanoma"}, "SF-539 CNS": {"test_system": "SF-539 CNS"}, "OVCAR-4 ovarian": {"test_system": "OVCAR-4 ovarian"}, "NCI-H460 lung": {"test_system": "NCI-H460 lung"}, "MDA-MB-435": {"test_system": "MDA-MB-435"}, "K-562 leukemia": {"test_system": "K-562 leukemia"}, "786-0 renal": {"test_system": "786-0 renal"}}, "note": "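Following 48 hours of exposure in 96-well plates, responses at five concentrations were used to interpolate endpoints linearly. TGI is the concentration that stops growth completely.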", "data": [{"smiles": "CCOc1cc2c(cc1O)/C(=N\\N)C[C@@H]1[C@@H]2CC[C@]2(C)[C@@H](O)CC[C@@H]12", "values": [{"measurement": "TGI", "setting": "BT-549 breast", "value": 29.8, "unit": "µM"}, {"measurement": "TGI", "setting": "MALME-3M melanoma", "value": 20.8, "unit": "µM"}, {"measurement": "TGI", "setting": "RPMI-8226 leukemia", "value": "> 100", "unit": "µM"}, {"measurement": "TGI", "setting": "MCF7 breast", "value": "> 100", "unit": "µM"}, {"measurement": "TGI", "setting": "MOLT-4 leukemia", "value": "> 100", "unit": "µM"}, {"measurement": "TGI", "setting": "MDA-N", "value": 4.53, "unit": "µM"}, {"measurement": "TGI", "setting": "RXF 393 renal", "value": 36.2, "unit": "µM"}, {"measurement": "TGI", "setting": "NCI-H226 lung", "value": 29.2, "unit": "µM"}, {"measurement": "TGI", "setting": "NCI-H23 lung", "value": 92.1, "unit": "µM"}, {"measurement": "TGI", "setting": "TK-10 renal", "value": "> 68", "unit": "µM"}, {"measurement": "TGI", "setting": "NCI/ADR-RES ovarian", "value": "> 28.2", "unit": "µM"}, {"measurement": "TGI", "setting": "UACC-62 melanoma", "value": 41.9, "unit": "µM"}, {"measurement": "TGI", "setting": "IGROV1 ovarian", "value": 39.2, "unit": "µM"}, {"measurement": "TGI", "setting": "UO-31 renal", "value": "> 100", "unit": "µM"}, {"measurement": "TGI", "setting": "SR leukemia", "value": "> 100", "unit": "µM"}, {"measurement": "TGI", "setting": "DU-145 prostate", "value": "> 66.8", "unit": "µM"}, {"measurement": "TGI", "setting": "T-47D breast", "value": "> 39.5", "unit": "µM"}, {"measurement": "TGI", "setting": "SF-295 CNS", "value": 6.15, "unit": "µM"}, {"measurement": "TGI", "setting": "SNB-19 CNS", "value": "> 100", "unit": "µM"}, {"measurement": "TGI", "setting": "SW-620 colon", "value": 17.8, "unit": "µM"}, {"measurement": "TGI", "setting": "PC-3 prostate", "value": "> 80.1", "unit": "µM"}, {"measurement": "TGI", "setting": "HCT-116 colon", "value": "> 37.8", "unit": "µM"}, {"measurement": "TGI", "setting": "OVCAR-8 ovarian", "value": "> 42.9", "unit": "µM"}, {"measurement": "TGI", "setting": "A498 renal", "value": "> 100", "unit": "µM"}, {"measurement": "TGI", "setting": "CAKI-1 renal", "value": 40.6, "unit": "µM"}, {"measurement": "TGI", "setting": "A549 NSCLC", "value": "> 100", "unit": "µM"}, {"measurement": "TGI", "setting": "SK-MEL-28 melanoma", "value": 34.2, "unit": "µM"}, {"measurement": "TGI", "setting": "NCI-H522 lung", "value": 5.58, "unit": "µM"}, {"measurement": "TGI", "setting": "COLO 205 colon", "value": "> 56.5", "unit": "µM"}, {"measurement": "TGI", "setting": "OVCAR-3 ovarian", "value": 12.4, "unit": "µM"}, {"measurement": "TGI", "setting": "HOP-62 NSCLC", "value": "> 100", "unit": "µM"}, {"measurement": "TGI", "setting": "UACC-257 melanoma", "value": "> 50.9", "unit": "µM"}, {"measurement": "TGI", "setting": "SF-268 CNS", "value": "> 44.9", "unit": "µM"}, {"measurement": "TGI", "setting": "HL-60(TB) leukemia", "value": "> 61.9", "unit": "µM"}, {"measurement": "TGI", "setting": "EKVX NSCLC", "value": "> 100", "unit": "µM"}, {"measurement": "TGI", "setting": "CCRF-CEM leukemia", "value": "> 100", "unit": "µM"}, {"measurement": "TGI", "setting": "SN12C renal", "value": "> 42.4", "unit": "µM"}, {"measurement": "TGI", "setting": "HT29 colon", "value": 30.8, "unit": "µM"}, {"measurement": "TGI", "setting": "HS 578T breast", "value": "> 27", "unit": "µM"}, {"measurement": "TGI", "setting": "HOP-92 NSCLC", "value": 49.9, "unit": "µM"}, {"measurement": "TGI", "setting": "SNB-75 CNS", "value": "> 25.8", "unit": "µM"}, {"measurement": "TGI", "setting": "M14 melanoma", "value": "> 41.7", "unit": "µM"}, {"measurement": "TGI", "setting": "U251 CNS", "value": "> 48.9", "unit": "µM"}, {"measurement": "TGI", "setting": "OVCAR-5 ovarian", "value": "> 86", "unit": "µM"}, {"measurement": "TGI", "setting": "SK-OV-3 ovarian", "value": "> 100", "unit": "µM"}, {"measurement": "TGI", "setting": "SK-MEL-5 melanoma", "value": 28, "unit": "µM"}, {"measurement": "TGI", "setting": "ACHN renal", "value": "> 100", "unit": "µM"}, {"measurement": "TGI", "setting": "HCT-15 colon", "value": 16.8, "unit": "µM"}, {"measurement": "TGI", "setting": "HCC-2998 colon", "value": 12.8, "unit": "µM"}, {"measurement": "TGI", "setting": "MDA-MB-231 breast", "value": "> 42.9", "unit": "µM"}, {"measurement": "TGI", "setting": "KM12 colon", "value": 23, "unit": "µM"}, {"measurement": "TGI", "setting": "LOX IMVI melanoma", "value": "> 41.5", "unit": "µM"}, {"measurement": "TGI", "setting": "SK-MEL-2 melanoma", "value": 99.5, "unit": "µM"}, {"measurement": "TGI", "setting": "SF-539 CNS", "value": 38, "unit": "µM"}, {"measurement": "TGI", "setting": "OVCAR-4 ovarian", "value": "> 100", "unit": "µM"}, {"measurement": "TGI", "setting": "NCI-H460 lung", "value": "> 33.6", "unit": "µM"}, {"measurement": "TGI", "setting": "MDA-MB-435", "value": 4.95, "unit": "µM"}, {"measurement": "TGI", "setting": "K-562 leukemia", "value": "> 100", "unit": "µM"}, {"measurement": "TGI", "setting": "786-0 renal", "value": "> 38.5", "unit": "µM"}]}]}
